Measured values as given in patent US7271153B2, “Nitrogenous heterocyclic derivatives, medicinal compositions containing the same, medicinal uses thereof, and intermediates therefor” (Kissei Pharmaceutical Co., Ltd., priority 2001, dated 2007).

target: T1, human SGLT2 (Homo sapiens, UniProt P31639, I433V); experiment: Assay for inhibitory effect on human SGLT2 activity (uptake of methyl-α-D-glucopyranoside in COS-7 cells expressing transiently human SGLT2); assay type: cell-based; conditions: methyl-α-D-(U-14C)glucopyranoside uptake, 37° C., 2 hours, read-out: IC50 (concentration at which 50% of methyl-α-D-glucopyranoside uptake was inhibited)
T1 construct: expressed in transfected cells; host or cells: COS-7 cells (RIKEN CELL BANK RCB0539), transient electroporation with plasmid KL29
T1 sequence (P31639 1-672 I433V): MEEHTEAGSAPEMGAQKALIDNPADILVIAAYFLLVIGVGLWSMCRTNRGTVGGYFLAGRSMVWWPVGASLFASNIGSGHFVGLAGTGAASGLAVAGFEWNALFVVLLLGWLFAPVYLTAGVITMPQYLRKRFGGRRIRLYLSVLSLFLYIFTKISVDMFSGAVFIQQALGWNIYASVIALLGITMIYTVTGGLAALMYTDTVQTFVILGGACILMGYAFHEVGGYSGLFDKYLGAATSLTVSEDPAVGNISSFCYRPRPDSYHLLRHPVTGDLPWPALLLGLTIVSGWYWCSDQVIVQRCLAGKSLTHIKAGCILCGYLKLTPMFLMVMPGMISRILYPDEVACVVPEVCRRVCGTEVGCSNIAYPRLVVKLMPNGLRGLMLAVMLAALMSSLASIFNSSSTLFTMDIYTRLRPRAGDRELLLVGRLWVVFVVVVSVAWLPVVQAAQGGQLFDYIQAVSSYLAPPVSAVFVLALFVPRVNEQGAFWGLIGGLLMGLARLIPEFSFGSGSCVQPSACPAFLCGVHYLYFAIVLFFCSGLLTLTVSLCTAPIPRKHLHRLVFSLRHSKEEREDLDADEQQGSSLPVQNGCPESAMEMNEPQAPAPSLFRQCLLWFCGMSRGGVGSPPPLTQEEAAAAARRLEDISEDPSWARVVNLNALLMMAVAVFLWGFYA
Protocol: Assay for Inhibitory Effect on Human SGLT2 Activity
1) Construction of the Plasmid Vector Expressing Human SGLT2
Preparation of the cDNA library for PCR amplification was performed by reverse transcription of a total RNA deprived from human kidney (Ori gene) with oligo dT as the primer, using SUPERSCRIPT Preamplification System (Gibco-BRL: LIFE TECHNOLOGIES). The DNA fragment coding for human SGLT2 was amplified by the PCR reaction using Pfu DNA Polymerase (made by Stratagene), in which the human kidney cDNA library described above was used as the template and the following oligo nucleotides 0702F and 0712R, presented as Sequence Numbers 1 and 2 respectively, were used as the primers. The amplified DNA fragment was ligated into pCR-Blunt (Invitrogen), a vector for cloning, according to standard method of the kit. The Escherichia coli HB101 Competent Cell (made by TOYOBO Co., Ltd.) was transformed according to usual method and then selection of the transformants was performed on the LB agar medium containing 50 μg/mL of kanamycin. After plasmid DNA was extracted and purified from the one of the transformants, amplifying of the DNA fragment coding for human SGLT2 was performed by the PCR reaction using Pfu DNA Polymerase (made by Stratagene), in which the following oligo nucleotides 0714F and 0715R, presented as Sequence Numbers 3 and 4 respectively, were used as the primers. The amplified DNA fragment was digested with restriction enzymes, Xho I and Hind III, and then purified with Wizard Purification System (Promega). This purified DNA fragment was inserted at the corresponding restriction sites of pcDNA3.1 (−) Myc/His—A (Invitrogen), avector for expressing of fusion protein. The Escherichia coli HB101 Competent Cell (made by TOYOBO Co., Ltd.) was transformed according to usual method and then selection of the transformant was performed on the LB agar medium containing 100 μg/mL of ampicillin. After plasmid DNA was extracted and purified from this transformant, the base sequence of the DNA fragment inserted at the multi-cloning sites of the vector pcDNA3.1 (−) Myc/His—A was analyzed. […] Sequentially, a clone in which valine is substituted for isoleucine-433 was obtained. This plasmid-vector expressing human SGLT2 in which the peptide presented as Sequence Number 5 is fused to the carboxyl terminal alanine residue was designated KL29.
2) Preparation of the Cells Expressing Transiently Human SGLT2
KL29, the plasmid coding human SGLT2, was transfected into COS-7 cells (RIKEN CELL BANK RCB0539) by electroporation. Electroporation was performed with GENE PULSER II (Bio-Rad Laboratories) under the condition: 0.290 kV, 975 μF, 2×10^6 cells of COS-7 cell and 20 μg of KL29 in 500 μL of OPTI-MEM I medium (Gibco-BRL: LIFE TECHNOLOGIES) in the 0.4 cm type cuvette. […]

Row | Structure (SMILES) | IC50 [nM]
1 | CCc1ccc(Cc2c(C)cc(C)nc2O[C@@H]2O[C@H](CO)[C@@H](O)[C@H](O)[C@H]2O)cc1 [Example 18, 3-(4-Ethylbenzyl)-2-(β-D-glucopyranosyloxy)-4,6-dimethyl-pyridine] | 41
2 | COc1ccc(Cc2c(C)cc(C)nc2O[C@@H]2O[C@H](CO)[C@@H](O)[C@H](O)[C@H]2O)cc1 [Example 19, 2-(β-D-Glucopyranosyloxy)-3-(4-methoxybenzyl)-4,6-dimethyl-pyridine] | 45
3 | Cc1cc(C)c(Cc2ccc(CCO)cc2)c(O[C@@H]2O[C@H](CO)[C@@H](O)[C@H](O)[C@H]2O)n1 [Example 20, 2-(β-D-Glucopyranosyloxy)-3-[4-(2-hydroxyethyl)benzyl]-4,6-dimethylpyridine] | 45
4 | COc1ccc(Cc2c(C)cc(OC)nc2O[C@@H]2O[C@H](CO)[C@@H](O)[C@H](O)[C@H]2O)cc1 [Example 21, 2-(β-D-Glucopyranosyloxy)-6-methoxy-3-(4-methoxybenzyl)-4-methylpyridine] | 55
